According to patent publication US6555375B1, “Methods for somatic embryo formation and plant regeneration of Beta vulgaris” (priority 2000, dated 2003):

Columns and labels:
[1] = system: sugar beet somatic embryos; assay: Germination of primary somatic embryos on MS medium containing cytokinin; format: cell-based, Beta vulgaris
Description: The embryos germinated quickly when transferred to fresh medium either supplemented with phytohormones or not. […] These embedded tissues were manually isolated, separated and transferred into liquid medium (MS medium+BAP 0.2 mg/L). The cultures were maintained at constant agitation (100 rpm) in the dark with biweekly changes of the medium. The white embryogenic tissue masses expanded in two weeks and snow-white fresh outgrowths formed on the surface of older tissues (FIG. 2B). Clumps of white embryogenic tissue masses were divided and transferred to fresh medium for further proliferation. A couple of such passages was enough to generate a large number of white clumps. Part of these tissues was used for the optimization of culture medium.

[2] = system: embryogenic tissue masses of sugar beet; assay: Repetitive embryogenic culture: optimization of proliferation medium; format: cell-based, Beta vulgaris; settings: for Effect of media on repetitive embryogenic culture (description) / white embryos or white clumps, share of tissues / white embryos, share of tissues: sucrose 6%, pH 5.7
Description: These embedded tissues were manually isolated, separated and transferred into liquid medium (MS medium+BAP 0.2 mg/L). The cultures were maintained at constant agitation (100 rpm) in the dark with biweekly changes of the medium. […] Clumps of white embryogenic tissue masses were divided and transferred to fresh medium for further proliferation. […] Part of these tissues was used for the optimization of culture medium.
The optimization of proliferation medium was conducted through several stages. Each stage lasted for two weeks.

[3] = system: secondary somatic embryos of sugar beet; assay: Regeneration of secondary somatic embryos, adventitious shoot formation; format: cell-based, Beta vulgaris
Source text: Somatic embryos produced as described in Example 3 started to germinate as soon as they were transferred to a medium comprising MS basal salts, 3% sucrose and either BAP or TDZ under light. Regeneration began with green or red coloration of an embryo accompanied by formation of primary leaves and roots (FIG. 2C). Since the regeneration medium contained cytokinins, the primary roots were reduced while the shoots developed (FIG. 2D).
To select the best medium for embryo germination, a series of concentrations of BAP and TDZ was tested. The phenotypic effect of applied phytohormones was estimated after three weeks (FIG. 3).

[4] = system: friable callus of sugar beet; assay: Shoot/plant regeneration from friable callus; format: cell-based, Beta vulgaris
Description: (§1) For regeneration of embryos, friable callus was transferred to callus regeneration medium (MS medium supplemented with either 1 mg/L of BAP or 1 mg/L of TDZ). The cultures were incubated at 25° C. under a photoperiod of 16 hours of light of cool, white light at an intensity of 30 μmol m^−2s^−1 followed by a 8 hours of darkness. Callus began to grow vigorously, and by the end of the second week, it was possible to distinguish several callus types as well as small embryos (FIG. 1C). Since every seedling was treated as a separate line, quantitative analysis can be applied to the results of the experiments.
All explants of one type from the same line (i.e. only hypocotyls) were able to produce callus, if any did. At the same time, there were only a few cases where callus formed from both cotyledons and hypocotyls of the same seedling (twice in ACH31 and four times in ACH203).

[5] = system: sugar beet seedling tissues (hypocotyls, cotyledons); assay: Callus induction from sugar beet seedling explants on MS medium with cytokinin; format: cell-based, Beta vulgaris
Description: Seeds from three sugar beet lines ACH199 (triploid), ACH31 (triploid) and ACH203 (diploid) were obtained from Crystal and Maribo Beet Seed, Moorehead, Minn. USA. To remove seed covers, Beta vulgaris seeds were soaked in the tap water overnight and then washed under water flow. Seeds were sterilized by sequential treatment with 70% (v/v) ethanol (1 min.), 0.1% (w/v) mercuric chloride (10 min.) and 10% (v/v) household laundry bleach (20 min.) followed by four washes with sterile distilled water. Seeds were then dried on sterile filter paper. All steps were performed in a laminar flow hood.
A series of media which included additional supplements were used for callus induction, embryo proliferation and shoot formation. Phytohormones (BAP, TDZ, NAA, IAA, 2,4-D) were added to the media before autoclaving (120° C. for 20 min.). The basal medium for callus induction and embryogenesis is MS medium comprising MS basal salts, 3% sucrose, 100 mg/L myo-inositol, 0.5 mg/L nicotinic acid, 0.5 mg/L pyridoxine-HCl, 1 mg/L thiamine-HCl and 0.8% (w/v) Difco agar. The basal medium for proliferation of repetitive embryos is MSE (MS basal salts, 100 mg/L myo-inositol, 0.5 mg/L nicotinic acid, 0.5 mg/L pyridoxine-HCl, 1 mg/L thiamine-HCl).
Petri dishes (100 mm×25 mm) containing 25 mL of medium were used for all experiments. Seeds were placed on MS medium, containing either BAP 2 mg/L or TDZ 1 mg/L; plates were sealed and placed in the dark place at 21° C. Cotyledons and hypocotyls (FIG. 1A) were excised from two-week-old seedlings, cut into several pieces, incised and placed on callus induction medium (MS medium supplemented with either 2 mg/L of BAP or 1 mg/l of TDZ). Plates were incubated in the dark at 21° C. Four weeks later, when explants were necrotic and dark brown, colonies of white friable callus appeared on the explant surface (FIG. 1B). Most of the callus formed on hypocotyls. Only a few colonies were found on cotyledons.

callus = settings: Nielson et al. (1995), Roussy et al. (1996); cited from earlier work
[6] = system: friable callus of sugar beet; assay: Somatic embryogenesis from friable callus; format: cell-based, Beta vulgaris; settings: callus of ACH199 on MS+BAP at 1 mg/L
Description: as §1
After having subcultured callus tissues on regeneration medium, friable callus grew quite fast, expanded vigorously and was almost totally necrotic after a month. At this moment a few white embryogenic structures at different stages of development became visible (FIG. 1D); however, only callus of ACH199 growing on MS+BAP at 1 mg/L produced such structures. The frequency of embryogenesis was very low. Seven separate embryos were found in two out of 40 independent callus lines.

[7] = IV. MSE, glycine 2 mg/L, phytohormone 0.05 mg/L
[8] = IV. MSE, glycine 2 mg/L, phytohormone 0.1 mg/L
[9] = IV. MSE, glycine 2 mg/L, phytohormone 1 mg/L
[10] = Cultivar ACH31, Hypocotyls, regeneration medium MS + 1 mg/L BAP or TDZ
[11] = Cultivar ACH31, Cotyledons, MS + BAP 2 mg/L or TDZ 1 mg/L
[12] = Cultivar ACH31, Hypocotyls, MS + BAP 2 mg/L or TDZ 1 mg/L
[13] = Cultivar ACH31, Hypocotyls, MS + BAP 2 mg/L or TDZ 1 mg/L, dark 21° C.
[14] = Cultivar ACH203, Cotyledons, MS + BAP 2 mg/L or TDZ 1 mg/L
[15] = Cultivar ACH203, Hypocotyls, MS + BAP 2 mg/L or TDZ 1 mg/L
[16] = II. MSE, glutamine 2 mg/L, phytohormone 0.1 mg/L

| Structure (SMILES) | phenotype of embryos transferred to MS medium containing BAP or TDZ [1] | Effect of media on repetitive embryogenic culture (description) [2, 7] | white embryos or white clumps, share of tissues [2, 7] | Effect of media on repetitive embryogenic culture (description) [2, 8] | white embryos or white clumps, share of tissues [2, 8] | Effect of media on repetitive embryogenic culture (description) [2, 9] | # of lines produced shoots ([4]; Cultivar ACH31, Cotyledons) | %B: number of lines producing callus and regenerating/total number of lines × 100 ([4]; Cultivar ACH31, Cotyledons) | %B: number of lines producing callus and regenerating/total number of lines × 100 ([4]; Cultivar ACH31, Hypocotyls) | # of lines produced shoots [4, 10] | # of lines produced shoots ([4]; Cultivar ACH203, Cotyledons) | %B: number of lines producing callus and regenerating/total number of lines × 100 ([4]; Cultivar ACH203, Cotyledons) | # of lines produced shoots ([4]; Cultivar ACH203, Hypocotyls) | %B: number of lines producing callus and regenerating/total number of lines × 100 ([4]; Cultivar ACH203, Hypocotyls) | %A: number of lines producing callus/total number of lines × 100 ([5]; Cultivar ACH31, Cotyledons) | # of lines produced callus [5, 11] | %A: number of lines producing callus/total number of lines × 100 [5, 12] | # of lines produced callus [5, 13] | %A: number of lines producing callus/total number of lines × 100 ([5]; Cultivar ACH203, Cotyledons) | # of lines produced callus [5, 14] | other results |
| --- | --- | --- | --- | --- | --- | --- | --- | --- | --- | --- | --- | --- | --- | --- | --- | --- | --- | --- | --- | --- | --- |
| O=C(Nc1ccccc1)Nc1cnns1 [TDZ, thidiazuron] | formed multiple shoots but also retained white embryogenic tissues | Vigorously expanded dark red culture | 20% | Vigorously expanded dark red culture | 20% | Vigorously expanded dark red culture, no white embryos | 0 | 0% | 9% | 10 | 0 | 0% | 40 | 17% | 0% | 0 | 45% | 50 | 0% | 0 | necrosis [2]: did not cause necrosis; tissue proliferation and anthocyanin production [2]: very quick proliferation of tissue and intensified production of anthocyanins; effect on embryogenic tissues during medium optimization ([2]; indicated by vigorous growth, red coloration, absence of embryogenic tissue masses): induced the regeneration of embryos; adventitious shoot formation ([3]; TDZ at 0.03 mg/L, concentrations tested 0.03, 0.1, 0.3, 1 and 3 mg/l, after three weeks): most effective; inducing the formation of adventitious shoots on Beta vulgaris embryos ([3]; compared with BAP): superior to BAP; regeneration, particularly shoot development on Beta vulgaris embryos ([3]; compared with BAP): superior to BAP; vitrification of tissues ([3]; concentrations higher than 0.03 mg/L): caused vitrification of tissues; vitrification of tissues and adventitious shoots ([3]; low concentrations): did not cause vitrification of tissues while producing more adventitious shoots; increase of plant regeneration from these calli, TDZ compared with BAP ([4]; ACH31, hypocotyl callus): nine-fold; production of friable callus and shoots, and plants therefrom: callus induction medium comprising TDZ versus BAP [5]: superior; increase of friable callus formation from hypocotyls, TDZ compared with BAP ([5]; ACH31): two-fold; %A: number of lines producing callus/total number of lines × 100 ([5]; Cultivar ACH203, Hypocotyls): 43%; # of lines produced callus [5, 15]: 100; callus initiation from cotyledons, TDZ compared with BAP ([5]; cotyledons): no TDZ-related improvements; callus formation and plant regeneration, TDZ compared with BAP ([5]; hypocotyls of cultivar ACH203): provided similar results; rate of callus formation from hypocotyls and plant regeneration from such callus, TDZ compared with BAP ([5]; two out of three cultivars tested): dramatically increased; callus-inducing effectiveness (callus): more effective callus-inducing agent than BAP |
| c1ccc(CNc2ncnc3nc[nH]c23)cc1 [BAP, 6-benzylaminopurine] | formed multiple shoots but also retained white embryogenic tissues | Light yellow tissues | 25% | Light yellow tissues | 25% | Vigorously growing, vitrified tissues | 0 | 0% | 1% | 1 | 2 | 0.9% | 11 | 5% | 1% | 3 | 20% | 43 | 5% | 11 | Effect of media on repetitive embryogenic culture (description) [2, 16]: Most tissues are red or dark yellow; white embryos, share of tissues [2, 16]: 10%; Effect of media on repetitive embryogenic culture (description) ([2]; IV. MSE, glycine 2 mg/L, phytohormone 0.01 mg/L): Necrotic tissue with some white embryos; growth is stunted; white embryos, share of tissues [2, 9]: 10%; # of lines produced shoots ([4]; Cultivar ACH199, Cotyledons): 1; %B: number of lines producing callus and regenerating/total number of lines × 100 ([4]; Cultivar ACH199, Cotyledons): 0.5%; # of lines produced shoots ([4]; Cultivar ACH199, Hypocotyls): 1; %B: number of lines producing callus and regenerating/total number of lines × 100 ([4]; Cultivar ACH199, Hypocotyls): 0.5%; %A: number of lines producing callus/total number of lines × 100 ([5]; Cultivar ACH199, Cotyledons): 2%; # of lines produced callus ([5]; Cultivar ACH199, Cotyledons, MS + BAP 2 mg/L): 4; %A: number of lines producing callus/total number of lines × 100 ([5]; Cultivar ACH199, Hypocotyls): 15%; # of lines produced callus ([5]; Cultivar ACH199, Hypocotyls, MS + BAP 2 mg/L): 36; %A: number of lines producing callus/total number of lines × 100 ([5]; Cultivar ACH203, Hypocotyls): 18%; # of lines produced callus [5, 15]: 42; frequency of embryogenesis [6]: very low; independent callus lines in which embryos were found [6]: two out of 40; separate embryos found ([6]; after a month): Seven |
